Assay results published in patent US9340590B2 (priority 2011, dated 2016).
Positions of bridges follow the written chain, without caps; N, C: chain ends. Non-standard residues stand in square brackets, D forms with d. Residues, ends and D or L forms follow the SMILES beside them. NMeW = CN[C@@H](Cc1c[nH]c2ccccc12)C(=O)O; Cha = N[C@@H](CC1CCCCC1)C(=O)O; Phg = N[C@H](C(=O)O)c1ccccc1

How the values were obtained:
Assay in all cases: cell-based
hNav1.7 = hNav1.7 (Homo sapiens, UniProt Q15858); type: cell-based; conditions: Table 25; IonWorks Quattro, use; […]; read-out: IWQ Use Nav1.7
hNav1.5 = hNav1.5 (Homo sapiens, UniProt Q14524); conditions: Table 25; IonWorks Quattro, use; […]; read-out: IWQ Use Nav1.5
hNav1.3 = hNav1.3 (Homo sapiens, UniProt Q9NY46); conditions: Table 25; IonWorks Quattro, use; […]; read-out: IWQ Use Nav1.3
Sequence of hNav1.3 (Q9NY46 whole entry, looked up): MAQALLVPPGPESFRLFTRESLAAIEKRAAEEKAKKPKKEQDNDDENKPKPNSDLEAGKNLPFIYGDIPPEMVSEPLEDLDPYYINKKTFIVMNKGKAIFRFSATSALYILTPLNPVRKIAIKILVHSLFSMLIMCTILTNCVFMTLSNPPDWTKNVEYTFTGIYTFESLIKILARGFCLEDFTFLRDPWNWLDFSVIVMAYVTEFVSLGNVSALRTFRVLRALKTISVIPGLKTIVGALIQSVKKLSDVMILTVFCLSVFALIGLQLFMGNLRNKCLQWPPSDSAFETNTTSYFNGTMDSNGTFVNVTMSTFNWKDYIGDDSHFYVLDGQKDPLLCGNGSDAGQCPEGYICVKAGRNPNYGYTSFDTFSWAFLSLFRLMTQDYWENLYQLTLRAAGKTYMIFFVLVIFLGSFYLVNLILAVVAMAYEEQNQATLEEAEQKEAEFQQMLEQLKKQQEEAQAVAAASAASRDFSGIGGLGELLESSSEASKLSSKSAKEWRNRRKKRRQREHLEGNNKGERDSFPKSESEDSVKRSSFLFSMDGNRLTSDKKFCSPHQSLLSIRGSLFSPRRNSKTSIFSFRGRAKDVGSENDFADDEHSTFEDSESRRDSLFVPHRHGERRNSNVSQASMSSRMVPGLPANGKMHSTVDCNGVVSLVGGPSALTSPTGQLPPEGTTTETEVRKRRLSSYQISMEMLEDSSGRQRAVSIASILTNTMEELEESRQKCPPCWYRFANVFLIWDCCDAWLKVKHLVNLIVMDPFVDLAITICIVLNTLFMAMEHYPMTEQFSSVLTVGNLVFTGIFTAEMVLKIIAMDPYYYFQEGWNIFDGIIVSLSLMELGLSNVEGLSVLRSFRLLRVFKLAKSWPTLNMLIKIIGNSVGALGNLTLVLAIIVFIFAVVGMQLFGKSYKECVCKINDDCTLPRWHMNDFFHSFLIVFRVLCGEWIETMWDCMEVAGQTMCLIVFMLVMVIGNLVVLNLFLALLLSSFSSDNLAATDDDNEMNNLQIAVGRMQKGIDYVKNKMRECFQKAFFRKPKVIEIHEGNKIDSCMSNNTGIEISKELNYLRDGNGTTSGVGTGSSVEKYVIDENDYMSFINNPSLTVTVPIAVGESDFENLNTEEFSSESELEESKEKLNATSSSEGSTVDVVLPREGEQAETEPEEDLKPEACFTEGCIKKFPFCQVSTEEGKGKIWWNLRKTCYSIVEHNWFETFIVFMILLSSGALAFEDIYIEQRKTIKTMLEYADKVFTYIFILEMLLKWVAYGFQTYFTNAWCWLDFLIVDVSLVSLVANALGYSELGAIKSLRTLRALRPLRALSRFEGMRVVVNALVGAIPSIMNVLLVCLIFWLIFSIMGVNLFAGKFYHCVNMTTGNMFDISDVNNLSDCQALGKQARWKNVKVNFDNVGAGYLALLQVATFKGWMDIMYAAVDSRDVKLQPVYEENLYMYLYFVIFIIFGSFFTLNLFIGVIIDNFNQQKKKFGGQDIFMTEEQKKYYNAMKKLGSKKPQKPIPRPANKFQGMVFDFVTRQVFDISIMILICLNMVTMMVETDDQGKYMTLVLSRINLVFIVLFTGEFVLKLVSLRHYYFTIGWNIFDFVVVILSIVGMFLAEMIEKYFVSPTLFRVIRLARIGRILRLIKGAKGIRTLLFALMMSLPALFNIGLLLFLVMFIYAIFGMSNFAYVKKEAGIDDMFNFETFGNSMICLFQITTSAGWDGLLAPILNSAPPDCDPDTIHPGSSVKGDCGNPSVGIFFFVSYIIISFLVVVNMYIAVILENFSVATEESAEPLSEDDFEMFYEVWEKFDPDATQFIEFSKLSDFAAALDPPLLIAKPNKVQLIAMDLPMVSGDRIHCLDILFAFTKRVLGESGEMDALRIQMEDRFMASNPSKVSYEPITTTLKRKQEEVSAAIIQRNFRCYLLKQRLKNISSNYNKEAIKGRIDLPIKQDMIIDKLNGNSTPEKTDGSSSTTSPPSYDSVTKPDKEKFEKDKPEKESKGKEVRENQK

Sequence of hNav1.7 (Q15858 whole entry, looked up): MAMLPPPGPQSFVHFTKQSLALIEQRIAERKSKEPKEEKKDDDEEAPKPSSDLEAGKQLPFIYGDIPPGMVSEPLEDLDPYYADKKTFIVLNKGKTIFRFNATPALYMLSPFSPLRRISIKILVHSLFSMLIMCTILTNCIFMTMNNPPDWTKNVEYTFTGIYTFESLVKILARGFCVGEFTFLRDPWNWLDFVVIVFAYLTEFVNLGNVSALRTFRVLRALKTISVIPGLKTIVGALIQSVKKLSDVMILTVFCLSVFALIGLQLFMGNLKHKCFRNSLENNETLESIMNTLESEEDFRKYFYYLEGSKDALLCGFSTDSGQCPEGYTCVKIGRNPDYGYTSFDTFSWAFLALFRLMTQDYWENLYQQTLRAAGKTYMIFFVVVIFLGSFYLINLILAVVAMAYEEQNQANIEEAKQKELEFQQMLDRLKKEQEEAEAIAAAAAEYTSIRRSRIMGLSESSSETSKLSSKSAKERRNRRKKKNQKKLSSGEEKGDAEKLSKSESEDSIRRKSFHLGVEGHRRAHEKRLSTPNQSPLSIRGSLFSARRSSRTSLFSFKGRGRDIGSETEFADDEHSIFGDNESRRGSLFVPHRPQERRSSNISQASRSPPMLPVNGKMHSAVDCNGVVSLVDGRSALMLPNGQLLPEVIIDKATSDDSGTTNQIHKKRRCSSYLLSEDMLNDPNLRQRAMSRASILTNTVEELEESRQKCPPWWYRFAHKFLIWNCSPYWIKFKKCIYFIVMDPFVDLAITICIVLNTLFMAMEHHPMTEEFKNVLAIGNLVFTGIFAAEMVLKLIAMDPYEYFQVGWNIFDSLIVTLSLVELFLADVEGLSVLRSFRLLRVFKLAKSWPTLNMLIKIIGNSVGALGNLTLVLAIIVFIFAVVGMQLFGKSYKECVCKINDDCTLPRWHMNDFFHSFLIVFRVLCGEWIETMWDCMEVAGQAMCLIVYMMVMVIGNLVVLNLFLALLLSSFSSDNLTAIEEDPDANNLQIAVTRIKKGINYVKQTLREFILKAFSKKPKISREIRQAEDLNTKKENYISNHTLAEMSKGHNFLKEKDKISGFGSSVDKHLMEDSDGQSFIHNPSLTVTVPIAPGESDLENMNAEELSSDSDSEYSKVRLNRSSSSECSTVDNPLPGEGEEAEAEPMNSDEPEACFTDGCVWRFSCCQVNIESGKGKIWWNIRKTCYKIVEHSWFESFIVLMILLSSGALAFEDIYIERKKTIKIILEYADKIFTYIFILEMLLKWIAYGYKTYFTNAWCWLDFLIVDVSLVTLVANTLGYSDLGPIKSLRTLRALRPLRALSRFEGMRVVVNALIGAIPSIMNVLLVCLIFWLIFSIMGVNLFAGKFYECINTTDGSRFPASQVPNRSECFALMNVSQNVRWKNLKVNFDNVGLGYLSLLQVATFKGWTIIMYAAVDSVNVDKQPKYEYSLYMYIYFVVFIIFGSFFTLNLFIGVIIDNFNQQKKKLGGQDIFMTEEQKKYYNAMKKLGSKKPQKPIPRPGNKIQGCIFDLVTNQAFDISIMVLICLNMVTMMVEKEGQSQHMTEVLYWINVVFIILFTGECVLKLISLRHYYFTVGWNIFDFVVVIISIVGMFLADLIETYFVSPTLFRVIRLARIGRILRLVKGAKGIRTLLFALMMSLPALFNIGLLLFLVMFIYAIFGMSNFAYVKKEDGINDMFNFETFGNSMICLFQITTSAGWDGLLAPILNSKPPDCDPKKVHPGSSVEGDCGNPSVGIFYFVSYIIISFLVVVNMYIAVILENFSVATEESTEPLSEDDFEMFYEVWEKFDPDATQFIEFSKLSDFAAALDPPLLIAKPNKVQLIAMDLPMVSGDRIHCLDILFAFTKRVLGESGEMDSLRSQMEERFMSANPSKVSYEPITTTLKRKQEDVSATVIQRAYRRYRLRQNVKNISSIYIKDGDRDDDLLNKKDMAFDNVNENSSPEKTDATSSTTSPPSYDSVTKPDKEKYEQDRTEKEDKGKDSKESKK

SMILES	IC50 (hNav1.7)	IC50 (hNav1.5)	IC50 (hNav1.3)
CC[C@H](C)[C@@H]1NC(=O)[C@@H]2CSSC[C@@H]3NC(=O)[C@H](C(C)C)NC(=O)[C@H](CC(C)C)NC(=O)[C@H](CC(N)=O)NC(=O)[C@@H]4CCCN4C(=O)[C@H](CCCNC(=N)N)NC(=O)[C@H](CSSC[C@H](NC(=O)[C@@H](N)CC(=O)O)C(=O)N[C@@H](CC(C)C)C(=O)NCC(=O)N[C@@H](Cc4ccccc4)C(=O)N[C@@H](CCSC)C(=O)N[C@@H](CCCNC(=N)N)C(=O)N[C@@H](CCCCN)C(=O)N2)NC(=O)[C@H](CSSC[C@@H](C(=O)N[C@@H](CCCCN)C(=O)N(C)[C@@H](Cc2c[nH]c4ccccc24)C(=O)N[C@H](C(=O)N[C@@H](Cc2ccccc2)C(N)=O)C(C)C)NC(=O)[C@H](Cc2c[nH]c4ccccc24)NC(=O)[C@H](CCCCN)NC(=O)[C@H](Cc2c[nH]cn2)NC(=O)[C@H]([C@@H](C)O)NC(=O)[C@H](CCCNC(=N)N)NC(=O)[C@H](CO)NC3=O)NC(=O)[C@H](CCCCN)NC(=O)[C@H](CC(=O)O)NC(=O)[C@H](CC(N)=O)NC(=O)[C@H](CC(=O)O)NC(=O)[C@@H]2CCCN2C1=O [compound 371] (H-DCLGFMRKCIPDNDKCCRPNLVCSRTHKWCK[NMeW]VF-NH2; disulfide 2-17, 9-23, 16-30)	4880 nM	> 5000 nM	> 5000 nM
CC[C@H](C)[C@@H]1NC(=O)[C@@H]2CSSC[C@@H]3NC(=O)[C@H](C(C)C)NC(=O)[C@H](CC(C)C)NC(=O)[C@H](CC(N)=O)NC(=O)[C@@H]4CCCN4C(=O)[C@H](CCCNC(=N)N)NC(=O)[C@H](CSSC[C@H](NC(=O)[C@@H](N)CC(=O)O)C(=O)N[C@@H](CC(C)C)C(=O)NCC(=O)N[C@@H](Cc4ccccc4)C(=O)N[C@@H](CCSC)C(=O)N[C@@H](CCCNC(=N)N)C(=O)N[C@@H](CCCCN)C(=O)N2)NC(=O)[C@H](CSSC[C@@H](C(=O)N[C@@H](CCCCN)C(=O)N[C@H](C(=O)N[C@H](C(=O)N[C@@H](Cc2ccccc2)C(N)=O)C(C)C)C(C)C)NC(=O)[C@H](Cc2c[nH]c4ccccc24)NC(=O)[C@H](CCCCN)NC(=O)[C@H](Cc2c[nH]cn2)NC(=O)[C@H]([C@@H](C)O)NC(=O)[C@H](CCCNC(=N)N)NC(=O)[C@H](CO)NC3=O)NC(=O)[C@H](CCCCN)NC(=O)[C@H](CC(=O)O)NC(=O)[C@H](CC(N)=O)NC(=O)[C@H](CC(=O)O)NC(=O)[C@@H]2CCCN2C1=O [compound 372] (H-DCLGFMRKCIPDNDKCCRPNLVCSRTHKWCKVVF-NH2; disulfide 2-17, 9-23, 16-30)	150 nM	14800 nM	80 nM
CC[C@H](C)[C@@H]1NC(=O)[C@@H]2CSSC[C@@H]3NC(=O)[C@H](C(C)C)NC(=O)[C@H](CC(C)C)NC(=O)[C@H](CC(N)=O)NC(=O)[C@@H]4CCCN4C(=O)[C@H](CCCNC(=N)N)NC(=O)[C@H](CSSC[C@H](NC(=O)[C@@H](N)CC(=O)O)C(=O)N[C@@H](CC(C)C)C(=O)NCC(=O)N[C@@H](Cc4ccccc4)C(=O)N[C@@H](CCSC)C(=O)N[C@@H](CCCNC(=N)N)C(=O)N[C@@H](CCCCN)C(=O)N2)NC(=O)[C@H](CSSC[C@@H](C(=O)N[C@@H](CCCCN)C(=O)N[C@@H](CC(C)C)C(=O)N[C@H](C(=O)N[C@@H](Cc2ccccc2)C(N)=O)C(C)C)NC(=O)[C@H](Cc2c[nH]c4ccccc24)NC(=O)[C@H](CCCCN)NC(=O)[C@H](Cc2c[nH]cn2)NC(=O)[C@H]([C@@H](C)O)NC(=O)[C@H](CCCNC(=N)N)NC(=O)[C@H](CO)NC3=O)NC(=O)[C@H](CCCCN)NC(=O)[C@H](CC(=O)O)NC(=O)[C@H](CC(N)=O)NC(=O)[C@H](CC(=O)O)NC(=O)[C@@H]2CCCN2C1=O [compound 373] (H-DCLGFMRKCIPDNDKCCRPNLVCSRTHKWCKLVF-NH2; disulfide 2-17, 9-23, 16-30)	120 nM	8830 nM	80 nM
CC[C@H](C)[C@@H]1NC(=O)[C@@H]2CSSC[C@@H]3NC(=O)[C@H](C(C)C)NC(=O)[C@H](CC(C)C)NC(=O)[C@H](CC(N)=O)NC(=O)[C@@H]4CCCN4C(=O)[C@H](CCCNC(=N)N)NC(=O)[C@H](CSSC[C@H](NC(=O)[C@@H](N)CC(=O)O)C(=O)N[C@@H](CC(C)C)C(=O)NCC(=O)N[C@@H](Cc4ccccc4)C(=O)N[C@@H](CCSC)C(=O)N[C@@H](CCCNC(=N)N)C(=O)N[C@@H](CCCCN)C(=O)N2)NC(=O)[C@H](CSSC[C@@H](C(=O)N[C@@H](CCCCN)C(=O)N[C@H](C(=O)N[C@H](C(=O)N[C@@H](Cc2ccccc2)C(N)=O)C(C)C)c2ccccc2)NC(=O)[C@H](Cc2c[nH]c4ccccc24)NC(=O)[C@H](CCCCN)NC(=O)[C@H](Cc2c[nH]cn2)NC(=O)[C@H]([C@@H](C)O)NC(=O)[C@H](CCCNC(=N)N)NC(=O)[C@H](CO)NC3=O)NC(=O)[C@H](CCCCN)NC(=O)[C@H](CC(=O)O)NC(=O)[C@H](CC(N)=O)NC(=O)[C@H](CC(=O)O)NC(=O)[C@@H]2CCCN2C1=O [compound 374] (H-DCLGFMRKCIPDNDKCCRPNLVCSRTHKWCK[Phg]VF-NH2; disulfide 2-17, 9-23, 16-30)	140 nM	7060 nM	100 nM
CC[C@H](C)[C@@H]1NC(=O)[C@@H]2CSSC[C@@H]3NC(=O)[C@H](C(C)C)NC(=O)[C@H](CC(C)C)NC(=O)[C@H](CC(N)=O)NC(=O)[C@@H]4CCCN4C(=O)[C@H](CCCNC(=N)N)NC(=O)[C@H](CSSC[C@H](NC(=O)[C@@H](N)CC(=O)O)C(=O)N[C@@H](CC(C)C)C(=O)NCC(=O)N[C@@H](Cc4ccccc4)C(=O)N[C@@H](CCSC)C(=O)N[C@@H](CCCNC(=N)N)C(=O)N[C@@H](CCCCN)C(=O)N2)NC(=O)[C@H](CSSC[C@@H](C(=O)N[C@@H](CCCCN)C(=O)N[C@@H](CC2CCCCC2)C(=O)N[C@H](C(=O)N[C@@H](Cc2ccccc2)C(N)=O)C(C)C)NC(=O)[C@H](Cc2c[nH]c4ccccc24)NC(=O)[C@H](CCCCN)NC(=O)[C@H](Cc2c[nH]cn2)NC(=O)[C@H]([C@@H](C)O)NC(=O)[C@H](CCCNC(=N)N)NC(=O)[C@H](CO)NC3=O)NC(=O)[C@H](CCCCN)NC(=O)[C@H](CC(=O)O)NC(=O)[C@H](CC(N)=O)NC(=O)[C@H](CC(=O)O)NC(=O)[C@@H]2CCCN2C1=O [compound 375] (H-DCLGFMRKCIPDNDKCCRPNLVCSRTHKWCK[Cha]VF-NH2; disulfide 2-17, 9-23, 16-30)	50 nM	8880 nM	20 nM
CC[C@H](C)[C@@H]1NC(=O)[C@@H]2CSSC[C@@H]3NC(=O)[C@H](C(C)C)NC(=O)[C@H](CC(C)C)NC(=O)[C@H](CC(N)=O)NC(=O)[C@@H]4CCCN4C(=O)[C@H](CCCNC(=N)N)NC(=O)[C@H](CSSC[C@H](NC(=O)[C@@H](N)CC(=O)O)C(=O)N[C@@H](CC(C)C)C(=O)NCC(=O)N[C@@H](Cc4ccccc4)C(=O)N[C@@H](CCSC)C(=O)N[C@@H](CCCNC(=N)N)C(=O)N[C@@H](CCCCN)C(=O)N2)NC(=O)[C@H](CSSC[C@@H](C(=O)N[C@@H](CCCCN)C(=O)N[C@@H](Cc2ccccc2)C(=O)N[C@H](C(=O)N[C@@H](Cc2ccccc2)C(N)=O)C(C)C)NC(=O)[C@H](Cc2c[nH]c4ccccc24)NC(=O)[C@H](CCCCN)NC(=O)[C@H](Cc2c[nH]cn2)NC(=O)[C@H]([C@@H](C)O)NC(=O)[C@H](CCCNC(=N)N)NC(=O)[C@H](CO)NC3=O)NC(=O)[C@H](CCCCN)NC(=O)[C@H](CC(=O)O)NC(=O)[C@H](CC(N)=O)NC(=O)[C@H](CC(=O)O)NC(=O)[C@@H]2CCCN2C1=O [compound 377] (H-DCLGFMRKCIPDNDKCCRPNLVCSRTHKWCKFVF-NH2; disulfide 2-17, 9-23, 16-30)	50 nM	6840 nM	50 nM
CC[C@H](C)[C@@H]1NC(=O)[C@@H]2CSSC[C@@H]3NC(=O)[C@H](C(C)C)NC(=O)[C@H](CC(C)C)NC(=O)[C@H](CC(N)=O)NC(=O)[C@@H]4CCCN4C(=O)[C@H](CCCNC(=N)N)NC(=O)[C@H](CSSC[C@H](NC(=O)[C@@H](N)CC(=O)O)C(=O)N[C@@H](CC(C)C)C(=O)NCC(=O)N[C@@H](Cc4ccccc4)C(=O)N[C@@H](CCSC)C(=O)N[C@@H](CCCNC(=N)N)C(=O)N[C@@H](CCCCN)C(=O)N2)NC(=O)[C@H](CSSC[C@@H](C(=O)N[C@@H](CCCCN)C(=O)NCC(=O)N[C@H](C(=O)N[C@@H](Cc2ccccc2)C(N)=O)C(C)C)NC(=O)[C@H](Cc2c[nH]c4ccccc24)NC(=O)[C@H](CCCCN)NC(=O)[C@H](Cc2c[nH]cn2)NC(=O)[C@H]([C@@H](C)O)NC(=O)[C@H](CCCNC(=N)N)NC(=O)[C@H](CO)NC3=O)NC(=O)[C@H](CCCCN)NC(=O)[C@H](CC(=O)O)NC(=O)[C@H](CC(N)=O)NC(=O)[C@H](CC(=O)O)NC(=O)[C@@H]2CCCN2C1=O [compound 378] (H-DCLGFMRKCIPDNDKCCRPNLVCSRTHKWCKGVF-NH2; disulfide 2-17, 9-23, 16-30)	710 nM	11200 nM	620 nM
CC[C@H](C)[C@@H]1NC(=O)[C@@H]2CSSC[C@@H]3NC(=O)[C@H](C(C)C)NC(=O)[C@H](CC(C)C)NC(=O)[C@H](CC(N)=O)NC(=O)[C@@H]4CCCN4C(=O)[C@H](CCCNC(=N)N)NC(=O)[C@H](CSSC[C@H](NC(=O)[C@@H](N)CC(=O)O)C(=O)N[C@@H](CC(C)C)C(=O)NCC(=O)N[C@@H](Cc4ccccc4)C(=O)N[C@@H](CCSC)C(=O)N[C@@H](CCCNC(=N)N)C(=O)N[C@@H](CCCCN)C(=O)N2)NC(=O)[C@H](CSSC[C@@H](C(=O)N[C@@H](CCCCN)C(=O)N[C@@H](CC(N)=O)C(=O)N[C@H](C(=O)N[C@@H](Cc2ccccc2)C(N)=O)C(C)C)NC(=O)[C@H](Cc2c[nH]c4ccccc24)NC(=O)[C@H](CCCCN)NC(=O)[C@H](Cc2c[nH]cn2)NC(=O)[C@H]([C@@H](C)O)NC(=O)[C@H](CCCNC(=N)N)NC(=O)[C@H](CO)NC3=O)NC(=O)[C@H](CCCCN)NC(=O)[C@H](CC(=O)O)NC(=O)[C@H](CC(N)=O)NC(=O)[C@H](CC(=O)O)NC(=O)[C@@H]2CCCN2C1=O [compound 379] (H-DCLGFMRKCIPDNDKCCRPNLVCSRTHKWCKNVF-NH2; disulfide 2-17, 9-23, 16-30)	4860 nM	10600 nM	6850 nM
